The values that follow come from patent US11584711B2, “2,2,2-trifluoroacetic acid 1-(2,4-dimethylphenyl)-2-[(3-methoxyphenyl)methylene] method of making the same” (Abrexa Pharmaceuticals, Inc., priority 2018, dated 2023).

The term pEC50 denotes the negative decadic logarithm of the EC50, by convention in mol/L. For orientation: solubility means the dissolved amount per volume that the medium holds.

Data set [1] can be described thus: Heat storage / variable temperature XRD form conversion. The class given is physicochemical. The note with it: for form conversion by XRD: 40° C. oven over weekend. The protocol:
Recrystallization Using Heat: Amorphous/glass samples from Panel 1 were placed in a vacuum oven at 60° C. for 6 days. […] A sample of Form I was placed in a 40° C. in oven over a weekend.

Data set [2] in a line: Polymorph screen summary of solid state forms. It counts as physicochemical. As to conditions: room temperature and pressure. An excerpt:
The raw diffraction data generated from the polymorph screening experiments were categorized into two polymorphic forms. Samples of these different forms were used to perform additional experiments (DSC, TGA, HSM, etc.) to refine the forms.
The main result is the discovery of two anhydrous polymorphic forms of J147. The polymorphic forms isolated in this Example were designated I and II. At room temperature and pressure Form II is the thermodynamically form of J147. Form I is the metastable form at room temperature and pressure.

A further data set is described as follows: Grinding. It counts as physicochemical. The note with it: ball mill 1 minute at 4800 oscillations per minute. The protocol: Grinding: Form I was ground using a Crescent Wig-L-Bug ball mill for 1 minute at 4800 oscillations per minute (3.2 m/s).
Data set [3] can be described thus: Hygroscopicity-Dynamic Vapor Sorption (DVS). The class given is physicochemical. The note with it: 25° C.; for tendency to hydrate formation (DVS): 0 to 95% RH; for total weight loss (DVS): at 95% RH. On the procedure:
Hygroscopicity-Dynamic Vapor Sorption (DVS): DVS is a gravimetric screening technique that measures how quickly and how much of a solvent (water) is adsorbed by a sample. The relative humidity or vapor concentration surrounding the sample is varied while the change in mass of the sample is measured. […] The mass values at each relative humidity step are used to generate the isotherm. Isotherms are divided in two components: sorption for increasing humidity steps and desorption for decreasing humidity steps.
The samples were analyzed using a TA Q2000 automated dynamic vapor sorption analyzer. The samples were dried at 40° C. for 5 hours and then cooled to 25° C. with a dry nitrogen purge over them until they no longer lost mass at 0% RH. The samples were then subjected to 0 to 95% RH, back to 0% RH at 25° C. in 5% RH steps.

Data set [4] can be described thus: Static Vapor Sorption Study. The class given is physicochemical. The note with it: 75% RH static humidity chamber, ambient temperature, after 5 and 12 days. An excerpt: Static Vapor Sorption Study: A […] vapor sorption study was done in a sealed humidity chamber with an automatic moisture sorption balance. Data collected during dynamic vapor sorption studies often are not at thermodynamic equilibrium. To determine if the Form I and Form II material form a hydrate over time, samples were monitored in a 75% static humidity chamber.
In these studies, samples were stored in open Petri dishes in a chamber containing a saturated salt solution to maintain the relative vapor pressure. A solution of saturated sodium chloride (75% RH) salt at ambient temperature was used.
The samples were examined gravimetrically after 5 and 12 days.

Data set [5] in a line: Competitive Slurry Experiments. The class given is physicochemical. The note with it: ambient temperature and pressure. On the procedure: These experiments rely on the solubility differences of different polymorphic forms.
The slurry experiments were performed by exposing excess material of Forms I and II to a small volume of solvent/water and agitating the resulting suspensions for several days at ambient temperature. The solids were filtered and analyzed by XRD and DSC to determine the resulting form. To avoid possible desolvation or physical change after isolation, the sample was not dried before x-ray analysis.

In data set [6] the test system is neurotoxicity pathways related to aging and neurodegenerative diseases. As to conditions: assays indicating distinct neurotoxicity pathways; cited from earlier work.
Data set [7] can be described thus: Visual Solubility Measurement. The class given is physicochemical. The note with it: thermodynamic from solid, ambient temperature, read-out: Approximate Solubility. The protocol: Visual Solubility Measurement: Approximately 80 mg of J147 was placed into each of 25 vials. Solvent was added and vials were stirred for several minutes at ambient temperature, followed by visual observation for remaining solids. The solvent was incrementally added until the solids were dissolved, or until a maximum volume of solvent was added and the experiment was terminated. These stock solutions were used to set up further panels of experiments.

In the next data set the test system is normal rodents. As to conditions: cited from earlier work.
Data set [8] deals with transgenic AD mouse model. The note with it: cited from earlier work.

pEC50: −log10 of the molar value. In brackets after ≈: the same amount, converted by molar mass. Entries after “also recorded” stand apart in the source; their conditions may differ. Like-named read-outs stand apart in the source and are kept apart here. Where only a bound is given, the exact number is not on record here.

`COc1cccc(/C=N/N(C(=O)C(F)(F)F)c2ccc(C)cc2C)c1` [Amorphous/glass samples from Panel 1]: the “form by XRD after heating” value in [1] (vacuum oven at 60° C. for 6 days) was “XRD pattern of Form II”.

Turning to `COc1cccc(C=NN(C(=O)C(F)(F)F)c2ccc(C)cc2C)c1` [Form I, 2,2,2-trifluoroacetic acid 1-(2,4-Dimethylphenyl)-2-[(3-methoxyphenyl)methylene]hydrazide], the “form conversion by XRD” value in [1] was “conversion to Form II”. For the same compound, the “form conversion by variable temperature XRD” value in data set [1] (held at 35° C. over a weekend) is recorded as “no form conversion”. Further, the “Description (thermodynamic stability of form)” value in [2] was “Metastable”. Further, the “form transformation by XRD after grinding” value in “Grinding” was “no transformation”. In addition, in data set [3], the “tendency to hydrate formation (DVS)” value is recorded as “does not appear to be prone to hydrate formation; also recorded: did not appear to be prone to hydrate formation” and the “total weight loss (DVS)” value is listed as “approximately 0.5%”. Also, the “hydrate formation (gravimetric weight change)” value in [4] was “no hydrate formation”.

Turning to `COc1cccc(C=NN(C(=O)C(F)(F)F)c2ccc(C)cc2C)c1` [Form II, 2,2,2-trifluoroacetic acid 1-(2,4-Dimethylphenyl)-2-[(3-methoxyphenyl)methylene]hydrazide], the “form conversion by XRD” value in data set [1] was “no form conversion”. For the same compound, in [2], the “Description (thermodynamic stability of form)” value is “Thermodynamically”. Also, the “solubility and thermodynamic stability relative to Form I” value in data set [5] is “less soluble, more thermodynamically stable”. In addition, in data set [3], the “tendency to hydrate formation (DVS)” value is “does not appear to be prone to hydrate formation” and the “total weight loss (DVS)” value was “approximately 0.5%”. In addition, the “hydrate formation (gravimetric weight change)” value in data set [4] was “no hydrate formation”.

For `COc1cccc(/C=N/N(C(=O)C(F)(F)F)c2ccc(C)cc2C)c1` [Form J147, 2,2,2-trifluoroacetic acid 1-(2,4-Dimethylphenyl)-2-[(3-methoxyphenyl)methylene] hydrazide], in [6], the pEC50 was 6.70 to 8.00. The solubility in data set [7] (organic solvent or mixture, 1-butanol) is 40 mg/mL (≈ 114 mM); in [7] (organic solvent or mixture, 1-propanol), over 80 mg/mL; in data set [7] (organic solvent or mixture, 2-butanol) it was 40 mg/mL (≈ 114 mM); in [7] (organic solvent or mixture, 2-propanol) it was 40 mg/mL (≈ 114 mM); in data set [7] (organic solvent or mixture, acetone) it was over 80 mg/mL; in data set [7] (organic solvent or mixture, acetonitrile (ACN)) it was over 80 mg/mL. In addition, the solubility is over 80 mg/mL in data set [7] (organic solvent or mixture, butyl amine); over 80 mg/mL in data set [7] (organic solvent or mixture, chloroform); over 80 mg/mL in [7] (organic solvent or mixture, dichloromethane (DCM)); over 80 mg/mL in data set [7] (organic solvent or mixture, dimethyl formamide (DMF)); over 80 mg/mL in [7] (organic solvent or mixture, dimethylacetamide (DMA)); over 80 mg/mL in [7] (organic solvent or mixture, ethanol). Moreover, the solubility is over 80 mg/mL in data set [7] (organic solvent or mixture, ethyl acetate); 8 mg/mL (≈ 22.8 mM) in [7] (organic solvent or mixture, heptane); over 80 mg/mL in [7] (organic solvent or mixture, isopropyl acetate); over 80 mg/mL in data set [7] (organic solvent or mixture, isopropyl ether); over 80 mg/mL in [7] (organic solvent or mixture, methanol); over 80 mg/mL in data set [7] (organic solvent or mixture, methyl ethyl ketone (MEK)). Besides, the solubility was over 80 mg/mL in data set [7] (organic solvent or mixture, methyl tert butyl ether (MTBE)); over 80 mg/mL in data set [7] (organic solvent or mixture, nitromethane); over 80 mg/mL in [7] (organic solvent or mixture, pyridine); over 80 mg/mL in [7] (organic solvent or mixture, tetrahydrofuran (THF)); over 80 mg/mL in [7] (organic solvent or mixture, toluene); over 80 mg/mL in data set [7] (organic solvent or mixture, trifluoroethanol). The solubility in data set [7] (water) is under 1.6 mg/mL. The effect on memory result in the data set with normal rodents is reported as “improve memory”. Further, the “effect on synaptic proteins and cognitive decline” value in data set [8] is “prevent the loss of synaptic proteins and cognitive decline”.
